pIC50: −log10 of the molar value. Like-named read-outs stand apart in the source and are kept apart here.
Legend:
Type in all cases: cell-based
[1] = biological target: T1, AKT1 E17K (Homo sapiens, UniProt P31749, E17K); assay: Live cell AKT1 E17K target engagement by NanoBRET competitive probe displacement; conditions: HEK293 cells transfected with kinase-NanoLuciferase fusion, 2 h at 37° C.
T1 construct: expressed in transfected cells; host or cells: HEK293
How it was run: (§1)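 Steps: overnight transfection of HEK293 with kinase-NanoLuc plasmids; addition of compound dilutions and tracer (~EC50); 2 h incubation at 37 °C; substrate plus extracellular luciferase inhibitor; luminescence at 460 and 600 nm. IC50 values came from fitting the BRET ratio to a Hill equation.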

[2] = biological target: T2, AKT1 WT (Homo sapiens, UniProt P31749); assay: Live cell AKT1 WT target engagement by NanoBRET competitive probe displacement; conditions: HEK293 cells transfected with kinase-NanoLuciferase fusion, 2 h at 37° C.
T2 construct: expressed in transfected cells; host or cells: HEK293
How it was run: as §1

[3] = test system: LAPC4 prostate cancer cells; assay: Antiproliferative effects in LAPC4 cells (CellTiter Glo); conditions: LAPC4 cells (AKT1 E17K allele), read-out: LAPC4 proliferation IC50
How it was run: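 Growth inhibition is gauged by intracellular ATP content, measured with CellTiter Glo 72 h after compound addition to 1,000 seeded cells per well. IC50 derives from a Hill equation fit.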

[4] = biological target: T3, AKT2 (Homo sapiens, UniProt P31751); assay: Live cell AKT2 target engagement by NanoBRET competitive probe displacement; conditions: HEK293 cells transfected with kinase-NanoLuciferase fusion, 2 h at 37° C.
T3 construct: expressed in transfected cells; host or cells: HEK293
How it was run: as §1

T1 sequence (P31749 whole entry E17K, the tested form may be a part): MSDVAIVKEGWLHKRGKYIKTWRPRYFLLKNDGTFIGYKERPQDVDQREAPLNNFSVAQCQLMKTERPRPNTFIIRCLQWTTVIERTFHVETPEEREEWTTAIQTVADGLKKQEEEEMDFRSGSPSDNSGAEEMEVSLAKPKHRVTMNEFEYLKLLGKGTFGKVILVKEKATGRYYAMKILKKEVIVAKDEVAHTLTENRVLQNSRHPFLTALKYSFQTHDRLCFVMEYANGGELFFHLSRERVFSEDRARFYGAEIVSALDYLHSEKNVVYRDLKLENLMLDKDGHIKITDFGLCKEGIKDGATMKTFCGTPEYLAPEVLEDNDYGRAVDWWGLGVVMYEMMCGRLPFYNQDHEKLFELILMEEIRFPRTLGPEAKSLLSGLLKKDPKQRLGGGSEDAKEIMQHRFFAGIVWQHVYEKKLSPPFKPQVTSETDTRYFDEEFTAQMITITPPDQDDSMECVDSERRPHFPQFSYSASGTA
T2 sequence (P31749 whole entry, the tested form may be a part): as the sequence (P31749 whole entry E17K, the tested form may be a part) above, with K17E counted along it
T3 sequence (P31751 whole entry, the tested form may be a part): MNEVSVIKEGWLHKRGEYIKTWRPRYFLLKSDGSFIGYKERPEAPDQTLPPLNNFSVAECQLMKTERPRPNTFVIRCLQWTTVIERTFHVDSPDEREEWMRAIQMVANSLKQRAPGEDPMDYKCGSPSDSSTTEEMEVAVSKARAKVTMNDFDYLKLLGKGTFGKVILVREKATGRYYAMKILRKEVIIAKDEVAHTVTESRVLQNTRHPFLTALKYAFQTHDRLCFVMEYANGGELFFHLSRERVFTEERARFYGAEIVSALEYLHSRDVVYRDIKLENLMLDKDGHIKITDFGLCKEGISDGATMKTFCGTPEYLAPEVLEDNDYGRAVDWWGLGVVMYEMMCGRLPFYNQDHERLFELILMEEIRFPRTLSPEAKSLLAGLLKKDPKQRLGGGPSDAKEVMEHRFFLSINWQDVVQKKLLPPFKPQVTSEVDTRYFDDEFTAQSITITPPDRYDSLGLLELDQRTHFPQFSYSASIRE

| Structure (SMILES) | pIC50 [1] | pIC50 [2] | pIC50 ([3]; Homo sapiens, LAPC4, 72 h) | pIC50 [4] | pIC50 ([3]; 72 h) |
| --- | --- | --- | --- | --- | --- |
| C=CC(=O)N1CCC(N[C@H]2CCc3cc(-n4c(-c5cccnc5N)nc5ccc(C6CC6)nc54)ccc32)C(C)C1 (single isomer, unassigned) [Example 229, 1-((3*,4*)-4-(((S)-5-(2-(2-aminopyridin-3-yl)-5-cyclopropyl-3H-imidazo[4,5-b]pyridin-3-yl)-2,3-dihydro-1H-inden-1-yl)amino)-3-methylpiperidin-1-yl)prop-2-en-1-one] | 7.66 | 6.12 | 6.48 | 7.01 |  |
| C=CC(=O)N1CCC(N[C@H]2CCc3cc(-n4c(-c5cccnc5N)nc5ccc(C6CC6)nc54)ccc32)C(C)C1 (single isomer, unassigned) [Example 230, 1-((3*,4*)-4-(((S)-5-(2-(2-aminopyridin-3-yl)-5-cyclopropyl-3H-imidazo[4,5-b]pyridin-3-yl)-2,3-dihydro-1H-inden-1-yl)amino)-3-methylpiperidin-1-yl)prop-2-en-1-one] | 7.38 | 6.05 |  | 6.46 | 6.22 |
| C=CC(=O)N1CCC(N[C@H]2CCc3cc(-n4c(-c5cccnc5N)nc5ccc(C6CC6)nc54)ccc32)C(C)C1 (single isomer, unassigned) [Example 231, 1-((3*,4*)-4-(((S)-5-(2-(2-aminopyridin-3-yl)-5-cyclopropyl-3H-imidazo[4,5-b]pyridin-3-yl)-2,3-dihydro-1H-inden-1-yl)amino)-3-methylpiperidin-1-yl)prop-2-en-1-one] | 7.13 | 5.91 |  | 6.76 | 6.40 |
| C=CC(=O)N1CCC(N[C@H]2CCc3cc(-n4c(-c5cccnc5N)nc5ccc(C6CC6)nc54)ccc32)C(C)C1 (single isomer, unassigned) [Example 232, 1-((3*,4*)-4-(((S)-5-(2-(2-aminopyridin-3-yl)-5-cyclopropyl-3H-imidazo[4,5-b]pyridin-3-yl)-2,3-dihydro-1H-inden-1-yl)amino)-3-methylpiperidin-1-yl)prop-2-en-1-one] | 7.68 | 5.97 |  | 6.77 | 6.19 |
| C=CC(=O)N1CCC(N[C@H]2CC(F)c3cc(-n4c(-c5cccnc5N)nc5ccc(-n6cccn6)nc54)ccc32)CC1 (single isomer, unassigned) [Example 233, 1-(4-(((1S,3*)-5-(2-(2-aminopyridin-3-yl)-5-(1H-pyrazol-1-yl)-3H-imidazo[4,5-b]pyridin-3-yl)-3-fluoro-2,3-dihydro-1H-inden-1-yl)amino)piperidin-1-yl)prop-2-en-1-one] | 7.84 | 7.22 |  | 7.55 | 7.15 |
| C=CC(=O)N1CCC(N[C@H]2CC(F)c3cc(-n4c(-c5cccnc5N)nc5ccc(-n6cccn6)nc54)ccc32)CC1 (single isomer, unassigned) [Example 234, 1-(4-(((1S,3*)-5-(2-(2-aminopyridin-3-yl)-5-(1H-pyrazol-1-yl)-3H-imidazo[4,5-b]pyridin-3-yl)-3-fluoro-2,3-dihydro-1H-inden-1-yl)amino)piperidin-1-yl)prop-2-en-1-one] | 7.92 | 6.50 |  | 7.15 | 6.48 |
| C=CC(=O)N1CCC(N[C@@H]2c3ccc(-n4c(-c5cccnc5N)nc5ccc(-n6ccc(F)n6)nc54)cc3CC2F)CC1 (single isomer, unassigned) [Example 236, 1-(4-(((1R,2*)-5-(2-(2-aminopyridin-3-yl)-5-(3-fluoro-1H-pyrazol-1-yl)-3H-imidazo[4,5-b]pyridin-3-yl)-2-fluoro-2,3-dihydro-1H-inden-1-yl)amino)piperidin-1-yl)prop-2-en-1-one] | 7.91 | 6.11 | 6.52 | 7.06 |  |
| C=CC(=O)N1CCC(N[C@@H]2c3ccc(-n4c(-c5cccnc5N)nc5ccc(-n6ccc(F)n6)nc54)cc3CC2F)CC1 (single isomer, unassigned) [Example 237, 1-(4-(((1R,2*)-5-(2-(2-aminopyridin-3-yl)-5-(3-fluoro-1H-pyrazol-1-yl)-3H-imidazo[4,5-b]pyridin-3-yl)-2-fluoro-2,3-dihydro-1H-inden-1-yl)amino)piperidin-1-yl)prop-2-en-1-one] | 7.75 | 6.27 |  | 7.05 | 6.44 |
| C=CC(=O)N1CCC(NC2CCc3cc(-n4c(-c5cccnc5N)nc5ccc(C6CC6(F)F)nc54)ccc32)CC1 (single isomer, unassigned) [Example 244, 1-(4-(((*)-5-(2-(2-aminopyridin-3-yl)-5-((*)-2,2-difluorocyclopropyl)-3H-imidazo[4,5-b]pyridin-3-yl)-2,3-dihydro-1H-inden-1-yl)amino)piperidin-1-yl)prop-2-en-1-one] | 7.70 | 6.01 | 6.43 | 6.70 |  |
| C=CC(=O)N1CCC(NC2CCc3cc(-n4c(-c5cccnc5N)nc5ccc(C6CC6(F)F)nc54)ccc32)CC1 (single isomer, unassigned) [Example 245, 1-(4-(((*)-5-(2-(2-aminopyridin-3-yl)-5-((*)-2,2-difluorocyclopropyl)-3H-imidazo[4,5-b]pyridin-3-yl)-2,3-dihydro-1H-inden-1-yl)amino)piperidin-1-yl)prop-2-en-1-one] | 7.42 | 6.15 |  | 6.45 | 6.28 |
| C=CC(=O)N1CCC(N[C@H]2CCc3cc(-n4c(-c5cccnc5N)nc5ccc(-n6nccn6)nc54)ccc32)C[C@H]1C (single isomer, unassigned) [Example 261, 1-[(2R,4*)-4-{[(1S)-5-[2-(2-aminopyridin-3-yl)-5-(1,2,3-triazol-2-yl)imidazo[4,5-b]pyridin-3-yl]-2,3-dihydro-1H-inden-1-yl]amino}-2-methylpiperidin-1-yl]prop-2-en-1-one] | 7.36 | 6.26 |  | 6.87 | 6.64 |
| C=CC(=O)N1CCC(N[C@H]2CCc3cc(-n4c(-c5cccnc5N)nc5ccc(-n6nccn6)nc54)ccc32)C[C@H]1C (single isomer, unassigned) [Example 262, 1-[(2R,4*)-4-{[(1S)-5-[2-(2-aminopyridin-3-yl)-5-(1,2,3-triazol-2-yl)imidazo[4,5-b]pyridin-3-yl]-2,3-dihydro-1H-inden-1-yl]amino}-2-methylpiperidin-1-yl]prop-2-en-1-one] | 7.53 | 6.19 |  | 7.34 | 7.08 |
| C=CC(=O)N1CCC(N[C@@H]2c3ccc(-n4c(-c5cccnc5N)nc5ccc(-n6ccc(F)n6)nc54)cc3CC2F)C[C@@H]1C (single isomer, unassigned) [Example 270, 1-((2S,4*)-4-(((1R,2*)-5-(2-(2-aminopyridin-3-yl)-5-(3-fluoro-1H-pyrazol-1-yl)-3H-imidazo[4,5-b]pyridin-3-yl)-2-fluoro-2,3-dihydro-1H-inden-1-yl)amino)-2-methylpiperidin-1-yl)prop-2-en-1-one] | 8.14 | 6.79 |  | 7.68 | 7.12 |
| C=CC(=O)N1CCC(N[C@@H]2c3ccc(-n4c(-c5cccnc5N)nc5ccc(-n6ccc(F)n6)nc54)cc3CC2F)C[C@@H]1C (single isomer, unassigned) [Example 271, 1-((2S,4*)-4-(((1R,2*)-5-(2-(2-aminopyridin-3-yl)-5-(3-fluoro-1H-pyrazol-1-yl)-3H-imidazo[4,5-b]pyridin-3-yl)-2-fluoro-2,3-dihydro-1H-inden-1-yl)amino)-2-methylpiperidin-1-yl)prop-2-en-1-one] | 7.66 | 6.03 |  | 6.61 | 6.17 |
| C=CC(=O)N1CCC(N[C@@H]2c3ccc(-n4c(-c5cccnc5N)nc5ccc(-n6ccc(F)n6)nc54)cc3CC2F)C[C@@H]1C (single isomer, unassigned) [Example 272, 1-((2S,4*)-4-(((1R,2*)-5-(2-(2-aminopyridin-3-yl)-5-(3-fluoro-1H-pyrazol-1-yl)-3H-imidazo[4,5-b]pyridin-3-yl)-2-fluoro-2,3-dihydro-1H-inden-1-yl)amino)-2-methylpiperidin-1-yl)prop-2-en-1-one] | 7.63 | 5.91 |  | 7.04 | 6.45 |
| C=CC(=O)N1CCC(N[C@@H]2c3ccc(-n4c(-c5cccnc5N)nc5ccc(-n6ccc(F)n6)nc54)cc3CC2F)C[C@@H]1C (single isomer, unassigned) [Example 273, 1-((2S,4*)-4-(((1R,2*)-5-(2-(2-aminopyridin-3-yl)-5-(3-fluoro-1H-pyrazol-1-yl)-3H-imidazo[4,5-b]pyridin-3-yl)-2-fluoro-2,3-dihydro-1H-inden-1-yl)amino)-2-methylpiperidin-1-yl)prop-2-en-1-one] | 7.94 | 6.80 |  | 7.55 | 6.87 |
| C=CC(=O)N1CCC(N[C@@H]2c3ccc(-n4c(-c5cccnc5N)nc5ccc(-n6ccc(F)n6)nc54)cc3CC2F)C[C@H]1C (single isomer, unassigned) [Example 274, 1-((2R,4*)-4-(((1R,2*)-5-(2-(2-aminopyridin-3-yl)-5-(3-fluoro-1H-pyrazol-1-yl)-3H-imidazo[4,5-b]pyridin-3-yl)-2-fluoro-2,3-dihydro-1H-inden-1-yl)amino)-2-methylpiperidin-1-yl)prop-2-en-1-one] | 7.73 | 6.16 |  | 7.03 | 6.49 |

Source: patent US12570655B2, “Cysteine covalent modifiers of AKT1 and uses thereof” (Terremoto Biosciences, Inc., priority 2023, dated 2026)
